Measurements published in US20110130369A1, “USE OF FTS FOR THE TREATMENT OF MYOCARDIAL ISCHEMIA/REPERFUSION INJURY” (RAMOT AT TEL-AVIV UNIVERSITY LTD., priority 2008, published 2011).

How the values were obtained:
[1] = system: Ras and its downstream effectors; assay: Western immunoblotting / Ras-GTP pull-down of homogenates of isolated perfused hearts (ex vivo); set-up: species or system rat; settings: FTS 1 μM, 30 minutes of reperfusion
Protocol: Hearts were obtained from FTS- and PBS-treated rats (LAD ligation experiments) and from isolated heart perfusion experiments. The hearts were homogenized in cold homogenization buffer containing protease inhibitors. Protein concentration was determined by the Bradford assay and samples containing 100 μg protein were used for determination of protein levels by Western immunoblotting using: pan-anti-Ras Ab (Ab03; Santa Cruz, Calif.), anti JNK Ab (Cell Signaling; Danvers, Mass.), anti p-JNK Ab (Cell Signaling), anti P38 Ab (Cell Signaling), anti p-P38 Ab (Cell Signaling), anti Mst1 Ab (Cell Signaling), and anti p-Mst1 Ab (Cell Signaling). Enhanced chemiluminescence (ECL) and densitometric analysis were performed as detailed previously [[…], Weisz […], Paz A, Marciano D, Egozi Y, et al., Biochemistry 37(5):1306-14 (1998)1. The hearts were prepared as described above. Samples containing 0.5 mg protein used for determination of levels of active GTP-bound Ras by the glutathione S-transferase-RBD pull-down assay followed by Western immunoblotting with pan-anti-Ras Ab as detailed previously [Jansen […], Mayer […], et al., Proc Natl Acad Sci U.S.A. 96(24):14019-24 (1999)]. To examine the effect of FTS on Ras signaling on its prominent downstream effectors, Western immunoblotting using homogenates of the isolated perfused hearts was performed. Quantitative analysis of the immunoblots disclosed a reduction in levels of active Ras (Ras-GTP) and p-Jnk in hearts of the FTS group (p<0.05) at 30 minutes of reperfusion.

isolated rat heart [2] = assay: Enzymatic leakage of CK and LDH into the coronary effluent of isolated perfused hearts; settings: FTS 1 μM, at 1 minute and 30 minutes of reperfusion
Protocol: (§1) Rats were heparinized (500 U/kg) and anesthetized (i.p.) with ether. The hearts were quickly removed, the aorta was cannulated and the heart perfused in retrograde according to Langendorff at a pressure of 96 cmH2O with oxygenated Krebs-Henseleit bicarbonate buffer solution (KHB) containing (mM): 118 NaCl, 2.4 KCl, 1.2 MgSO4, 7×H2O, 2.5 CaCl2, 5 EDTA, 1.2 KH2PO4, 25 NaHCO3, 4 glucose at 37° C. [[…], Offen D, Maulik N, Otani H, Barhum Y, et al., Am J Physiol Heart Circ Physiol 284:H2351-59 (2003)]. The isolated heart was stabilized for 20 minutes at a constant perfusion pressure and then subjected to 30 minutes of ischemia followed by 30 minutes of reperfusion. Ischemia was created by clamping the aortic cannula. During reperfusion, hearts were given KHB (buffer) with FTS or KHB only. The temperature of the heart (measured in the right ventricle) was maintained at 37°±0.2° C. throughout the experiment by a micro-thermocouple connected to a digital thermometer (Webster Laboratories […], Calif.). In all stages of the protocol, the left ventricular developed pressure (LVP), the rate of pressure development and relaxation (±dP/dt) and the heart rate (HR), were continuously recorded by the CODAS data acquisition system (San Diego, Calif.). Rate pressure product (RPP), an index of myocardial workload, was calculated by multiplying LVP by HR. […]

Male Lewis rats [3] = assay: LAD artery ligation I/R model, echocardiography at day 14; settings: 5 mg/kg i.p.
Protocol: (§2) At the age of 12 weeks, rats were anesthetized (mixture of 8 mg/100 g ketamine, 5 mg/100 g xylazine), intubated, and ventilated with a Harvard Rodent Ventilator Model 383 (respiratory rate: 50/min, respiratory volume: 2.5 mL). A rectal thermocouple was used to continuously monitor body temperature, which was maintained at 37° C. using a heating pad. A left thoracotomy in the third intercostal space was performed to expose the heart. The location of the left descending coronary artery was identified and then occluded with a 6-0 silk suture. Occlusion was confirmed by monitoring the pallor of the region at risk, and an electrocardiogram was used to observe changes such as widening of QRS and ST-T segment elevation. After 30 minutes, the occlusion was removed, the thorax was closed, and rats were returned to their cages at the local vivarium.
FTS was stored in chloroform, which was evaporated under a stream of nitrogen immediately before use. The powder was dissolved in absolute ethanol and diluted to the desired concentration in sterile PBS made basic with NaOH. Carrier solution (1000 μl) containing 1.35 mg of FTS (5 mg/kg) was injected intraperitoneally (i.p.) into each rat. Control solution was prepared at the same time starting with PBS and absolute ethanol.
LAD ligation was performed in two groups of rats. Group 1 received 5 mg/kg FTS and group 2 received PBS according to two protocols: (A) FTS or PBS was administered 7 days on a daily basis before LAD ligation, locally during occlusion opening (0.5 μM/100 μl), and continued for 14 days, every other day [prophylactic regimen] (B) FTS or PBS was administered 14 days after LAD ligation every other day [treatment regimen].
To examine the effect of systemic FTS treatment on the heart, in vivo experiments were conducted according two protocols.

isolated rat heart [4] = assay: Measurement of irreversible ischemic injury by TTC staining of isolated perfused hearts; settings: FTS 1 μM perfusion, 30 minutes ischemia and 30 minutes of reperfusion; control 23.7±4%, p<0.05; mean±SE
Protocol: as §1

isolated rat heart [5] = assay: Isolated heart perfusion (Langendorff), 30 min ischemia / 30 min reperfusion, hemodynamic recovery; settings: FTS 1 μM in perfusate
Protocol: FTS was provided by Concordia Pharmaceuticals, Inc. (Ft. Lauderdale, Fla.). […] The powder was dissolved in DMSO and diluted with Krebs-Henseleit bicarbonate buffer solution (KHB) to yield a 1 μM drug solution containing 10% DMSO. Rats were heparinized (500 U/kg) and anesthetized (i.p.) with ether. The hearts were quickly removed, the aorta was cannulated and the heart perfused in retrograde according to Langendorff at a pressure of 96 cmH2O with oxygenated Krebs-Henseleit bicarbonate buffer solution (KHB) containing (mM): 118 NaCl, 2.4 KCl, 1.2 MgSO4, 7×H2O, 2.5 CaCl2, 5 EDTA, 1.2 KH2PO4, 25 NaHCO3, 4 glucose at 37° C. [[…], Offen D, Maulik N, Otani H, Barhum Y, et al., Am J Physiol Heart Circ Physiol 284:H2351-59 (2003)]. The isolated heart was stabilized for 20 minutes at a constant perfusion pressure and then subjected to 30 minutes of ischemia followed by 30 minutes of reperfusion. Ischemia was created by clamping the aortic cannula. During reperfusion, hearts were given KHB (buffer) with FTS or KHB only. The temperature of the heart (measured in the right ventricle) was maintained at 37°±0.2° C. throughout the experiment by a micro-thermocouple connected to a digital thermometer (Webster Laboratories […], Calif.). In all stages of the protocol, the left ventricular developed pressure (LVP), the rate of pressure development and relaxation (±dP/dt) and the heart rate (HR), were continuously recorded by the CODAS data acquisition system (San Diego, Calif.). Rate pressure product (RPP), an index of myocardial workload, was calculated by multiplying LVP by HR. Coronary effluent was collected at one-minute intervals before and after ischemia, at various time points (1, 10 and 30 minutes reperfusion) and analyzed for CK activity (Boehringer Mannheim). Results are expressed as means±standard error of the mean (SE). Values during stabilization period were defined as 100%. A statistical difference between the groups was assessed by analysis of variance (ANOVA) with repeated measurements using the multiple comparison option of Duncan. If differences were established, values were compared using Student's t-test: p<0.05 was considered significant. To determine the protective effects of Ras protein inhibition on cardiac damage derived from I/R injury ex vivo, we first determined the baseline absolute values of the rats and cardiac function prior to ischemia in FTS (1 μM) and control groups. […] Values are expressed as mean±SE. Next, we perfused the isolated rat hearts with FTS (1 μM) in the Langendorff system after 30 minutes of ischemia (FIG. 1). FTS had no effect on the CF recovery in the FTS vs. control group (FIG. 1A) during the 30 minutes of reperfusion.

[6] = system: Ras and its downstream effectors; assay: Western immunoblotting / Ras-GTP pull-down of hearts from LAD ligation rats (in vivo); set-up: species or system rat; settings: Protocol A, 5 mg/kg
[7] = human, in vivo; cited from earlier work
Male Lewis rats [8] = assay: LAD artery ligation I/R model, histopathology (H&E and Masson Trichrome), area of irreversible damage; settings: 5 mg/kg i.p.
Protocol: as §2
FTS was stored in chloroform, which was evaporated under a stream of nitrogen immediately before use. The powder was dissolved in absolute ethanol and diluted to the desired concentration in sterile PBS made basic with NaOH. […]
Hearts were removed and fixed in 4% formalin, then embedded in paraffin. […] Slides were then assessed in a blinded fashion by a pathologist using light microscopy and scored for the percentage of LVP involvement and collagen deposition. Scar area was evaluated using data from both H&E and Masson staining. […]

[9] = Protocol A (prophylactic regimen), p<0.05
[10] = reperfusion after 30 minutes of ischemia, p<0.05

For `CC(C)=CCC/C(C)=C/CC/C(C)=C/CSc1ccccc1C(=O)O` [FTS, S-farnesylthiosalicylic acid], which “Jnk levels vs. control” value [1] is on record?
Its value is “No differences”.

What about the “Mst1 levels vs. control” value [1] of the same compound?
The value was “No differences”.

And the “P38 levels vs. control” value [1]?
The value was “No differences”.

And the “p-Mst1 levels vs. control” value [1]?
Its value is “No differences”.

What about the “p-P38 levels vs. control” value [1] of the same compound?
Its value is “No differences”.

What about the “total Ras levels vs. control” value [1] of the same compound?
The value was “No differences”.

What about the “levels of active Ras (Ras-GTP) vs. control” value ([1]; p<0.05) of the same compound?
The value was “reduction”.

What about the “levels of p-Jnk vs. control” value ([1]; p<0.05) of the same compound?
Its value is “reduction”.

What about the “CK release to the coronary effluent vs. control” value (isolated rat heart [2]) of the same compound?
The value was “lower in the FTS group compared with control group, but did not reach statistical significance”.

What about the “LDH release to the coronary effluent vs. control” value (isolated rat heart [2]) of the same compound?
Its value is “lower in the FTS group compared with control group, but did not reach statistical significance”.

What about the “hemodynamic parameters of cardiac function vs. control I/R” value (Male Lewis rats [3]; Protocol A (prophylactic regimen)) of the same compound?
The value was “significant improvement in most hemodynamic parameters”.

And the “left ventricular end-diastolic area (LVEDA) vs. control I/R” value (Male Lewis rats [3]; [9])?
Its value is “significantly better”.

What about the “left ventricular end-systolic area (LVESA) vs. control I/R” value (Male Lewis rats [3]; [9]) of the same compound?
Its value is “significantly better”.

And the septum diameter (Male Lewis rats [3]; Protocol A (prophylactic regimen), control I/R 0.1±0.01, p<0.05, mean±SE)?
The septum diameter was 0.14±0.01 cm.

What about the “fractional shortening of area” value (Male Lewis rats [3]; Protocol A (prophylactic regimen), control I/R 38±4%, p<0.05, mean±SE) of the same compound?
The value was 55±6%.

What about the “cardiac hemodynamic function vs. control I/R” value (Male Lewis rats [3]; Protocol B (treatment regimen, 14 days post-LAD ligation)) of the same compound?
Its value is “no improvement”.

And the “regions of irreversible ischemic injury (TTC-negative area, percentage of the entire area of the section)” value (isolated rat heart [4])?
The value was 12.7±2%.

And the “CF (coronary flow) recovery vs. control” value (isolated rat heart [5]; 30 minutes of reperfusion after 30 minutes of ischemia)?
Its value is “no effect”.

What about the “recovery of HR vs. control” value (isolated rat heart [5]; reperfusion after 30 minutes of ischemia) of the same compound?
Its value is “no significant difference”.

What about the “LVP recovery vs. control” value (isolated rat heart [5]; [10]) of the same compound?
The value was “significantly better”.

What about the “±dP/dt recovery vs. control” value (isolated rat heart [5]; [10]) of the same compound?
Its value is “significantly better”.

What about the “levels of Jnk vs. control” value [6] of the same compound?
The value was “did not differ”.

And the “levels of Mst vs. control” value [6]?
The value was “did not differ”.

And the “levels of P38 vs. control” value [6]?
Its value is “did not differ”.

And the “levels of p-Jnk vs. control” value [6]?
Its value is “did not differ”.

What about the “levels of p-P38 vs. control” value [6] of the same compound?
The value was “did not differ”.

What about the “levels of active Ras (Ras-GTP) vs. control” value ([6]; p<0.05) of the same compound?
The value was “reduction”.

And the “levels of p-Mst1 vs. control” value ([6]; p<0.05)?
Its value is “reduction”.

What about the “levels of total Ras vs. control” value ([6]; p<0.05) of the same compound?
The value was “reduction”.

And the “tolerability / dose-limiting toxicities” value [7]?
The value was “well-tolerated compound without dose-limiting toxicities”.

What about the “area of irreversible damage (percentage of LV wall)” value (Male Lewis rats [8]; Protocol A (prophylactic regimen), control I/R 36±7%, mean±SE) of the same compound?
Its value is 17.25±2.5%.

And the “area of irreversible damage vs. control I/R” value (Male Lewis rats [8]; Protocol B (treatment regimen))?
The value was “did not show a significant difference”.
